Experimental data taken from patent US9879058B2, “Use of compounds that selectively modulate astrocytic release of substances through hemichannels of connexins and pannexins, without influencing gap junctions, for the treatment of psychiatric disorders” (Universidad Andres Bello, priority 2012, dated 2018).
Entries after “also recorded” stand apart in the source; their conditions may differ. Like-named read-outs stand apart in the source and are kept apart here. No end group written: not given here.

Assays:
[1] = target: T1, Cx30 hemichannels (Homo sapiens, UniProt O95452); assay: EthBr dye uptake in Cx30 transfected Hela cells; assay type: cell-based
T1 construct: expressed in transfected cells; host or cells: HeLa
Protocol: For visualization of dye uptake by captured images, Cx30 transfected Hela cells were exposed to 25 uM EthBr (Invitrogen, Eugene, Oreg.) for 5 min at room temperature. Then, cells were incubated with either HEPES-buffered salt solution containing 140 mM NaCl, 4 mM KCl, 1 mM CaCl2, 1 mM MgCl2, 5 mM glucose, […] or in calcium free HEPES-buffered salt solution (140 mM NaCl, 4 mM KCl, 5 mM glucose, […]). Then the test compound was added to both solutions followed by EthBr dissolved to a final 25 uM concentration. Cells are washed and mounted in Fluoromount and examined by epifluorescence.

[2] = target: T2, Cx43 gap junctions (Homo sapiens, UniProt P17302); assay: Scrape-loading/dye transfer in Cx43 transfected Hela cells; assay type: cell-based
T2 construct: expressed in transfected cells; host or cells: HeLa
Protocol: Gap junction permeability was determined at room temperature using the scrape-loading/dye transfer (SL/DT) technique, Hela cells were incubated with Carboxy-fluorescin (1 mg/ml) in the same Ca2+ free HEPES-buffered salt solution as above, then the test compound was added, followed by scrape-loading, which was performed with a razor blade. After 3 minutes the cells are washed with HEPES-buffered salt solution and mounted in Fluoromount and examined by epifluorescence.
A. Animals: All procedures involving animals were in accordance to NIH guidelines and with approval of the bioethical committee of the Universidad Andrés Bello. Sprague Dowley rats (˜60 d old, ˜250 g) were caged individually at 22° C., 12/12 h light/dark cycle. The rats remained in their home box throughout the study, and were removed only briefly for drug microinfusions. B. Drugs: For intra hippocampal microinjections Gap19 ([…] (SEQ ID NO: 3), LifeTein, South Plainfield, N.J., USA, >90% purity) was dissolved in PBS to yield a final solution of 100 μM and cacotheline was dissolved in sterile saline to a final concentration of 10 μM. For intravenous injections, cacotheline was dissolved to a final concentration of 10 μM in the blood stream, assuming circulating blood as 7% of body weight. Cacotheline was injected into the caudal vein under 4% isofluorane gas anesthesia. In a control group of rats sterile saline injection of equal volume was injected. C. Dye uptake: Gap junction permeability was determined at room temperature using the scrape-loading/dye transfer (SL/DT) technique, Hela cells were incubated with Carboxy-fluorescin (1 mg/ml) in the same Ca2+ free HEPES-buffered salt solution as above, then the test compound was added, followed byscrape-loading, which was performed with a razor blade. After 3 minutes the cells are washed with HEPES-buffered salt solution and mounted in Fluoromount and examined by epifluorescence. […]

[3] = tested on: Sprague Dowley rats; assay: Openfield test; assay type: in vivo, rat; conditions: for time in the center of the openfield (thigmotaxis): cacotheline 10 μM
Protocol: A. Animals: All procedures involving animals were in accordance to NIH guidelines and with approval of the bioethical committee of the Universidad Andrés Bello. Sprague Dowley rats (˜60 d old, ˜250 g) were caged individually at 22° C., 12/12 h light/dark cycle. The rats remained in their home box throughout the study, and were removed only briefly for drug microinfusions. B. Drugs: For intra hippocampal microinjections Gap19 ([…] (SEQ ID NO: 3), LifeTein, South Plainfield, N.J., USA, >90% purity) was dissolved in PBS to yield a final solution of 100 μM and cacotheline was dissolved in sterile saline to a final concentration of 10 μM. For intravenous injections, cacotheline was dissolved to a final concentration of 10 μM in the blood stream, assuming circulating blood as 7% of body weight. Cacotheline was injected into the caudal vein under 4% isofluorane gas anesthesia. In a control group of rats sterile saline injection of equal volume was injected. C. Dye uptake: Gap junction permeability was determined at room temperature using the scrape-loading/dye transfer (SL/DT) technique, Hela cells were incubated with Carboxy-fluorescin (1 mg/ml) in the same Ca2+ free HEPES-buffered salt solution as above, then the test compound was added, followed byscrape-loading, which was performed with a razor blade. After 3 minutes the cells are washed with HEPES-buffered salt solution and mounted in Fluoromount and examined by epifluorescence. D. Apparatus: All behavioral essays were performed in an openfield made of Plexiglas (60 cm×40 cm) or a dark/light exploration box (70×40 cm; light compartment 40×40 cm, dark compartment 30×40 cm), illuminated by a white light bulb. A video camera was mounted at the top of the chamber to allow digital recording throughout the experiments. E. Surgery and histology: Under ketamine/xylazine anesthesia ([…], respectively), rats were stereotaxically implanted with bilateral 22-gauge stainless steel cannulas aimed 1.0 mm above the ventral hippocampus (5.0 mm posterior to Bregma, 5.0 mm lateral to the midline, and 6.0 mm ventral to the skull surface (Paxinos, G., Watson, C. (1998). The Rat Brain in Stereotaxic Coordinates; Press A, editor, San Diego). The cannulas were fixed with acrylic dental cement and secured by 4 skull screws. A stylus was placed inside the guide cannula to prevent clogging. Rats were given at least 7 days to recover before experimental procedures began.
In all experiments, stylus was removed from the guide cannula, and a 28-gauge injection cannula was inserted through the guide cannula, extending 1.0 mm beyond its tip into the ventral hippocampus. Drugs were infused slowly via the injection cannula, connected by PE20 tubing to Hamilton microsyringes driven by a microinfusion pump. Infusions were of 0.25 μl per hemisphere at a rate of 0.32 μl/min. Following drug infusion, injecting cannulaes were left in place for 10 minutes to allow drug diffusion away from the cannula tip. At the end of all experiments, animals were anesthetized as above and perfused intracardially with saline, 4% buffered paraformaldehyde. Brains were extracted and postfixed in 30% sucrose until density equaled that of sucrose. […] Animals with histological lesions beyond the size of the cannula tip and guide cannula diameter were excluded from the analysis.
F. Behavioral procedures: To assess the effects of TAT-Gap19 on locomotor activity, entire body movements were measured in the openfield and counted as the number of crossings (transitions) between virtual square subdivisions of 10 cm^2 measured offline from digital video recordings. Measures of anxiety included thigmotaxis, rearing activity in the openfield. Transitions between light and dark compartments, number of times the animal peaked from the dark compartment into the lit compartment, and time spent in the lit compartment were measured in the Dark/light box paradigm^(62, 63). G. Data Analysis: Data were expressed as Mean+SD. […]

[4] = tested on: Cx30 gap junctions; assay: Scrape-loading/dye transfer, Cx30 gap junctions in Hela cells; assay type: cell-based
Protocol: Gap junction permeability was determined at room temperature using the scrape-loading/dye transfer (SL/DT) technique, Hela cells were incubated with Carboxy-fluorescin (1 mg/ml) in the same Ca2+ free HEPES-buffered salt solution as above. Then the test compound was added. Scrape-loading was then performed with a razor blade. After 3 minutes the cells are washed with HEPES-buffered salt solution and mounted in Fluoromount and examined by epifluorescence.

[5] = tested on: rats; assay: Forced swim test (FST); assay type: in vivo, rat; conditions: intravenous, 10 μM in the blood stream, 10 minutes before the test
Protocol: A. Methods: To assess depressive-like symptoms the forced swim test (FST) was employed, which was similar to that described elsewhere^(65). On training, rats were individually placed in a transparent Plexiglas cylinder (30 cm diameter×60 cm height) filled with water at 25±2° C. for 15 minutes. 24 h later, the animals were placed again in the cylinder for 5 minutes as described before. After initial vigorous swimming activity, swimming attempts normally cease and the animal adopts a characteristic immobile floating posture. Rats were scored for time to reach immobility and total immobility time by a trained observer from offline video recordings. Immobility was defined as the cessation of limb movements. B. Drugs: Cacotheline was dissolved to a final concentration of 10 μM into the blood stream, assuming circulating blood as 7% of body weight. Cacotheline was injected into the caudal vein under 4% isofluorane gas anesthesia 10 minutes before the behavioural test. In a control group of rats sterile saline injection of equal volume was injected. C. […] D. Discussion: A compound capable of increasing Cx43 hemichannel activity was able to decrease immobility in the FST, indication antidepressant effects. […] This implies that Cx43 modulators are useful to treat depression and other mood disorders.

[6] = tested on: Sprague Dowley rats; assay: Contextual fear conditioning after intravenous injection; assay type: in vivo, rat; conditions: 10 minutes before training, 10 μM in the blood stream
Protocol: A. Animals: All procedures involving animals were in accordance to NIH guidelines. Sprague Dowley rats (˜60 d old, ˜250 g) were caged individually at 22° C., 12/12 h light/dark cycle. The rats remained in their home box throughout the study, and were removed only briefly for drug microinfusions. B. Drugs: Cacotheline (Pharmeks Ltd. Moscow, Russia) was dissolved in sterile saline to yield a final solution of 10 μM in the blood stream. As a control, only sterile saline injection of equal volume was used. Cacotheline was injected into the caudal vein under 4% isofluorane anesthesia. C. Apparatus: All behavioral essays were performed in a sound attenuating cubicle. Conditioning and testing were conducted in the same chamber. For conditioning, rats were placed in a Plexiglas chamber with a metal grid floor (40 cm×40 cm×40 cm). The chamber was dimly illuminated by a red light. A video camera was mounted at the top of each chamber to allow digital recording throughout the experiments. D. Behavioral procedures: The conditioning is based on the animal learning that a previously neutral stimulus (a conditioned stimulus, CS; e.g. a context) becomes predictive of a stressful stimulus (unconditioned stimulus, US; e.g. footshock). […] During the test, total seconds of freezing (immobility) were calculated for each rat when exposed to the conditioned context for 5 minutes without the footshock. […]

[7] = microinjected into ventral hippocampus
[8] = microinjected into ventral hippocampus, peptides 100 μM

T2 sequence (P17302 whole entry): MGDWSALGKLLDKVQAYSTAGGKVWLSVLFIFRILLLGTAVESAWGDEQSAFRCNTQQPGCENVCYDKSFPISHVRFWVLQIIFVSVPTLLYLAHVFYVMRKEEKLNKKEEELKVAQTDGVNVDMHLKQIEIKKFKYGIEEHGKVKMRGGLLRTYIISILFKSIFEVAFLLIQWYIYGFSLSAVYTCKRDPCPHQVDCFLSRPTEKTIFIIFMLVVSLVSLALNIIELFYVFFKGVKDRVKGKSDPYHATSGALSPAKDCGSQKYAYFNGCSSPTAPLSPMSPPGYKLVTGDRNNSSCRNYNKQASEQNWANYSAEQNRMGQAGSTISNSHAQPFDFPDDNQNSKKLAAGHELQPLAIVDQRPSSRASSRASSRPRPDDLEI
T1 sequence (O95452 whole entry): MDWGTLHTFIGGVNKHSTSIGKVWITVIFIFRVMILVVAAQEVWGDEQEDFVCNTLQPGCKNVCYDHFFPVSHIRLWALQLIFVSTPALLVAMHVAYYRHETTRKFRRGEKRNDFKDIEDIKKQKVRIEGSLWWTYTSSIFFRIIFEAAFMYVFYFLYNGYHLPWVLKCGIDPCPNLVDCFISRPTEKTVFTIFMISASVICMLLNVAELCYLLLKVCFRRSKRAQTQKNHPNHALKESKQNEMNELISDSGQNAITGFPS

Compound	Cx30 hemichannel activity [1]	Cx43 gap junctional coupling [2]	effect on anxiety [3, 7]	time in the center of the openfield (thigmotaxis) [3, 8]	locomotion (transitions) in the openfield [3, 8]	Cx30 gap junctional communication [4]	immobility in the FST [5]	freezing to conditioned context 24 h after training [6]	freezing to conditioned context 24 h after training ([6]; listed as cacotheline)	Cx43 gap junctional coupling ([2]; listed as cacotheline)	locomotion (transitions) in the openfield ([3]; intravenous, 10 μM in the blood stream)	time in the center of the openfield (thigmotaxis) ([3]; microinjected into ventral hippocampus, peptides 100 μM, listed as cacotheline)	locomotion (transitions) in the openfield ([3]; microinjected into ventral hippocampus, peptides 100 μM, listed as Pnx1Li)
YGRKKRRQRRRCYDHFFPVSHIR [TAT-Cx30]	increase in Cx30 hemichannel activity	had no effects on Cx43 gap junctional coupling	anxiolytic effects	increase in time at the center of the openfield	increase in locomotion at the openfield	–	–	–	–	–	–	–	–
YGRKKRRQRRRDAPALYSNLSKKRG [TAT-Cx30L4]	increase hemichannel activity	–	anxiolytic effects	statistically significant increase in the time the animals spent in the center	tendency to increase locomotion	unaffected	–	–	–	–	–	–	–
O=C(O)C[C@@H]1OCC=C2CN3CC[C@]45C6=CC(=O)C(=O)C([N+](=O)[O-])=C6N[C@H]4[C@H]1[C@H]2C[C@H]35 [Cacotheline, 2,3-Dihydro-4-nitro-2,3-dioxo-9,10-secostrychnidin-10-oic acid]	–	had no effects on Cx43 gap junctional coupling; also recorded: without affecting Cx43 gap junctions	anxiolytic effects	significant increase in the time spent in the center of the openfield	–	–	significant decrease in immobility time	increased freezing	increase freezing	no effects on gap junctional coupling	increase in locomotion at the openfield; also recorded: increase in total locomotion	increase in time at the center of the openfield	–
YGRKKRRQRRRRDLDLRDGP [TAT-Pnx1L5, pannexin 1 mimetic peptide]	–	–	anxiolytic effects	increasing significantly the time in the center of the openfield	increased locomotion at the openfield	–	–	–	–	–	–	–	increasing significantly
WRQAAFVDSY [Pnx1]	–	–	anxiolytic effects	increase in time at the center of the openfield; also recorded: increasing significantly the time in the center of the openfield	increasing significantly	–	–	–	–	–	–	–	–
